{
  "source": "paper PMC11640089",
  "about": "“JRM-28, a Novel HDAC2 Inhibitor, Upregulates Plasticity-Associated Proteins in Hippocampal Neurons and Enhances Morphological Plasticity via Activation of CREB: Implications for Alzheimer’s Disease” (Cells, 2024)",
  "key": {"[1]": {"test_system": "SHSY5Y human neuronal cells", "assay": "MAP2 immunofluorescence/immunoblot, dendritic morphogenesis in SHSY5Y neurons", "assay_type": "cell-based", "experimental": "(§1) Primary neuronal cell culture was performed based on a protocol approved by the Institutional Animal Care and Use Committee (IACUC) of the University of Wisconsin-Milwaukee, Milwaukee, WI-53211, and by the guidelines set by the National Institute of Health. Embryonic day 18 (E18) fetuses were harvested, and hippocampal tissue was dissected from brains and then processed for single cell culture in poly-D-lysine-coated plates, as discussed elsewhere. Neuronal cells were maintained with B-27^TM-plus-supplemented complete neurobasal media for 7–10 days until fully differentiated. After that, the treatment with JRM-28 was performed. SHSY5Y cells were grown, maintained, and passaged with complete DMEM media (a bottle of DMEM supplemented with 10% FBS, 2 mM L-glutamine, and 100 units/mL antibiotics); otherwise, for neuronal differentiation study, SHSY5Y was seeded with complete neurobasal medium. For making AD neurons, commercially purchased (Axol Bioscience Ltd.) A246E psen1 neural stem cells (NSCs) were maintained with KnockOut^TM DMEM/F12 media supplemented with StemPro^TM Neural Supplement, bFGF, EGF, 2 mM GlutMAX^TM supplement, and 10 mL/L antibiotic-antimycotic solution. These […] NSCs were grown in a […] cell culture flask coated with Geltrex^TM matrix until fully confluent and then detached by Accutase, centrifuged, washed, and plated in a poly-D-lysine-coated plate supplemented with complete neurobasal media for neuronal differentiation. After one week, when neurons were differentiated, JRM-28 treatment was conducted.\nImmunofluorescence analysis was performed as described earlier. Briefly, cells cultured on coverslip contained in six-well plates (Lab-Tek II) were fixed with 4% paraformaldehyde for 20 min followed by two rinses in TBST. Samples were incubated in a 1:1 solution of TBST and blocking buffer containing rabbit anti-NR2A (1:250), anti-GluR1 (1:250), ant-HDAC2 (1:250), anti-CREB (1:250), and anti-MAP2 (1:250) for 2 h at 37 °C. After three washes in PBST (15 min each), slides were further incubated with FIT-C and TRIT-C-conjugated secondary antibodies. […]"}, "CREB": {"test_system": "CREB", "assay": "CRE dual luciferase reporter assay", "assay_type": "cell-based, human", "details": "increasing doses (2, 5, and 10 µM)", "experimental": "CRE luciferase assay was performed using a dual luciferase kit (Cat# 60611; BPS Bioscience). The CRE reporter is premixed with a constitutively expressing Renilla (sea pansy) luciferase vector that serves as an internal control for transfection efficiency. The reporter construct is transfected in SHSY5Y cells with Lipofectamine3000^TM transfection reagent mixed with serum-free Opti-MEM^TM Transfection media followed by supplementation with 20% FBS-containing media. After 24 h, cells were treated with JRM-28 for 5 h, and then dual luciferase activity was measured by cell lysis. The reaction was set in a 96-well plate, and the assay endpoint was recorded in a PerkinElmer Enspire multimodal plate reader."}, "iPSC-derived AD neurons": {"test_system": "iPSC-derived AD neurons", "assay": "Dual immunofluorescence in iPSC-derived AD neurons (A246E psen1)", "assay_type": "cell-based, human", "experimental": "as §1\nImmunofluorescence analysis was performed as described earlier. Briefly, cells cultured on coverslip contained in six-well plates (Lab-Tek II) were fixed with 4% paraformaldehyde for 20 min followed by two rinses in TBST. Samples were incubated in a 1:1 solution of TBST and blocking buffer containing rabbit anti-NR2A (1:250), anti-GluR1 (1:250), ant-HDAC2 (1:250), anti-CREB (1:250), and anti-MAP2 (1:250) for 2 h at 37 °C. After three washes in PBST (15 min each), slides were further incubated with FIT-C and TRIT-C-conjugated secondary antibodies. For negative controls, a set of culture slides was incubated under similar conditions with secondary antibodies and without the primary antibodies (Table 3). The samples were mounted and observed under an Accuscope fluorescent microscope. The images were captured and merged in CaptaVision^TM imaging software."}},
  "data": [
    {"compound": "CN(C(=O)CC(O)/C=C/CCSS(=O)(=O)CC/C=C/C(O)CC(=O)N(C)c1ccccc1)c1ccccc1", "note": "(stereo not drawn) [JRM-28, S-((E)-5-hydroxy-7-(methyl(phenyl)amino)-7-oxohept-3-en-1-yl) (E)-5-hydroxy-7-(methyl(phenyl)amino)-7-oxohept-3-ene-1-sulfonothioate]", "values": [
      {"measurement": "dendritic length / dendritic morphogenesis", "setting": "[1]; 5 µM versus control, n = 200 per group", "result": "augmented the dendritic morphogenesis"},
      {"measurement": "dendritic pruning (MAP2-ir appendages)", "setting": "[1]; 5 µM, 48 h (legend: 24 h)", "result": "significantly stimulated dendritic pruning"},
      {"measurement": "MAP2 expression (immunoblot)", "setting": "[1]; 5 and 10 µM", "result": "upregulated the expressions of MAP2"},
      {"measurement": "CREB-driven reporter activity", "setting": "CREB", "result": "upregulated the CREB-driven reporter activity"},
      {"measurement": "expressions of ionotropic glutamate receptors (NR2A, GluR1)", "setting": "iPSC-derived AD neurons; 5 µM", "result": "augmented the expressions of ionotropic glutamate receptors"},
      {"measurement": "length of MAP2-ir basal dendrites", "setting": "iPSC-derived AD neurons; 5 µM", "result": "increase the length of MAP2-ir basal dendrites"},
      {"measurement": "CREB expression (dual IF)", "setting": "iPSC-derived AD neurons; 5 μM, 24 h (legend: 48 h)", "result": "strong upregulation of CREB"},
      {"measurement": "HDAC2 expression (dual IF)", "setting": "iPSC-derived AD neurons; 5 μM, 24 h (legend: 48 h)", "result": "significant downregulation of HDAC2"}
    ]}
  ]
}
